Experimental data taken from patent US20070049564A1 (Wyeth, priority 2005, published 2007).
≈ marks a conversion by molar mass, not a printed value. Where two headings read alike, the source gives them in different places.

Experiments:
[1] = system: S. pneumoniae+ GC 4465; test: MIC, broth microdilution; settings: Streptococcus pneumoniae
[2] = system: E. coli GC 2231; test: MIC, broth microdilution; settings: Escherichia coli
[3] = system: P. aeruginosa GC 2214; test: MIC, broth microdilution; settings: Pseudomonas aeruginosa
[4] = system: S. aureus GC 1131; test: MIC, broth microdilution; settings: Staphylococcus aureus
[5] = system: E. coli GC 2272; test: MIC, broth microdilution; settings: Escherichia coli
[6] = system: S. aureus GC 4536; test: MIC, broth microdilution; settings: Staphylococcus aureus
[7] = system: S. aureus GC 6466; test: MIC, broth microdilution; settings: Staphylococcus aureus
Description: Antimicrobial susceptibility testing. The in vitro activities of the antibiotics are determined by the broth microdilution method as recommended by the National Committee for Clinical Laboratory Standards (NCCLS) (1). Mueller-Hinton II broth (MHBII)(BBL Cockeysville, Md.) is the medium employed in the testing procedures. Microtiter plates containing serial dilutions of each antimicrobial agent are inoculated with each organism to yield the appropriate density (10^5 CFU/ml) in a 100 μl final volume. The plates are incubated for 18-22 hours at 35° C. in ambient air. […] Standard Pharmacological Test Procedures
Presented in Tables I-XIII are representative compounds of Formula I which were evaluated against a panel of 40 selected gram-positive and gram-negative bacteria strains by pre-incubation in water, mouse serum or human serum. Representative compounds were first incubated in mouse serum for an hour prior to the in vitro testing against a panel of selected gram-positive and gram-negative bacteria strains. All compounds were also pre-incubated in water for an hour prior to testing as control. Representative compounds of Formula I were incubated in human serum prior to MIC determination.

[8] = system: E. coli GC 4560; test: MIC, broth microdilution; settings: Escherichia coli
[9] = system: E. faecalis GC 2242; test: MIC, broth microdilution; settings: Enterococcus faecalis
[10] = system: E. coli GC 2232; test: MIC, broth microdilution; settings: Escherichia coli
[11] = system: Staph. aureus Smith; test: In vivo activity (oral, iv; ED50) against Staph. aureus Smith in mice
Description: Representative examples of compounds of Formula I were tested for the oral efficacy using S. aureus Smith in mice.

[12] = system: S. epidermidis GC 4935; test: MIC, broth microdilution; settings: Staphylococcus epidermidis
[13] = system: E. coli GC 6465; test: MIC, broth microdilution; settings: Escherichia coli
[14] = system: S. aureus GC 6467; test: MIC, broth microdilution; settings: Staphylococcus aureus
[15] = system: E. coli GC 4559; test: MIC, broth microdilution; settings: Escherichia coli
[16] = system: S. aureus GC 2216; test: MIC, broth microdilution; settings: Staphylococcus aureus
[17] = system: E. coli GC 2203; test: MIC, broth microdilution; settings: Escherichia coli
[18] = system: E. faecalis GC 2267; test: MIC, broth microdilution; settings: Enterococcus faecalis
[19] = system: E. coli GC 2234; test: MIC, broth microdilution; settings: Escherichia coli
Description: Antimicrobial susceptibility testing. The in vitro activities of the antibiotics are determined by the broth microdilution method as recommended by the National Committee for Clinical Laboratory Standards (NCCLS) (1). Mueller-Hinton II broth (MHBII)(BBL Cockeysville, Md.) is the medium employed in the testing procedures. Microtiter plates containing serial dilutions of each antimicrobial agent are inoculated with each organism to yield the appropriate density (10^5 CFU/ml) in a 100 μl final volume. The plates are incubated for 18-22 hours at 35° C. in ambient air.
Representative compounds were first incubated in mouse serum for an hour prior to the in vitro testing against a panel of selected gram-positive and gram-negative bacteria strains. All compounds were also pre-incubated in water for an hour prior to testing as control.

[20] = system: S. pneumoniae* GC 4465; test: MIC, broth microdilution; settings: Streptococcus pneumoniae
[21] = read-out: MINIMAL INHIBITORY CONCENTRATION MIC, pre-incubated in Mouse Serum
[22] = read-out: MINIMAL INHIBITORY CONCENTRATION MIC, pre-incubated in Water
[23] = GC2231, read-out: MINIMAL INHIBITORY CONCENTRATION MIC, pre-incubated in Mouse Serum
[24] = GC2231, read-out: MINIMAL INHIBITORY CONCENTRATION MIC, pre-incubated in Water
[25] = GC2214, read-out: MINIMAL INHIBITORY CONCENTRATION MIC, pre-incubated in Mouse Serum
[26] = GC2214, read-out: MINIMAL INHIBITORY CONCENTRATION MIC, pre-incubated in Water
[27] = GC1131, read-out: MINIMAL INHIBITORY CONCENTRATION MIC, pre-incubated in Mouse Serum
[28] = GC1131, read-out: MINIMAL INHIBITORY CONCENTRATION MIC, pre-incubated in Water
[29] = GC2272, read-out: MINIMAL INHIBITORY CONCENTRATION MIC, pre-incubated in Mouse Serum
[30] = GC2272, read-out: MINIMAL INHIBITORY CONCENTRATION MIC, pre-incubated in Water
[31] = GC4536, read-out: MINIMAL INHIBITORY CONCENTRATION MIC, pre-incubated in Mouse Serum
[32] = GC4536, read-out: MINIMAL INHIBITORY CONCENTRATION MIC, pre-incubated in Water
[33] = GC6466, read-out: MINIMAL INHIBITORY CONCENTRATION MIC, pre-incubated in Mouse Serum
[34] = GC6466, read-out: MINIMAL INHIBITORY CONCENTRATION MIC, pre-incubated in Water
[35] = GC4560, read-out: MINIMAL INHIBITORY CONCENTRATION MIC, pre-incubated in Mouse Serum
[36] = GC4560, read-out: MINIMAL INHIBITORY CONCENTRATION MIC, pre-incubated in Water
[37] = GC2242, read-out: MINIMAL INHIBITORY CONCENTRATION MIC, pre-incubated in Mouse Serum
[38] = GC2242, read-out: MINIMAL INHIBITORY CONCENTRATION MIC, pre-incubated in Water
[39] = GC2232, read-out: MINIMAL INHIBITORY CONCENTRATION MIC, pre-incubated in Mouse Serum
[40] = GC2232, read-out: MINIMAL INHIBITORY CONCENTRATION MIC, pre-incubated in Water
[41] = Staphylococcus aureus, in Mus musculus, po, read-out: ED50 Staph Smith SOD
[42] = iv, read-out: ED50 Staph Smith SIV
[43] = GC4935, read-out: MINIMAL INHIBITORY CONCENTRATION MIC, pre-incubated in Mouse Serum
[44] = GC4935, read-out: MINIMAL INHIBITORY CONCENTRATION MIC, pre-incubated in Water
[45] = GC6465, read-out: MINIMAL INHIBITORY CONCENTRATION MIC, pre-incubated in Mouse Serum
[46] = GC6465, read-out: MINIMAL INHIBITORY CONCENTRATION MIC, pre-incubated in Water
[47] = GC6467, read-out: MINIMAL INHIBITORY CONCENTRATION MIC, pre-incubated in Mouse Serum
[48] = GC6467, read-out: MINIMAL INHIBITORY CONCENTRATION MIC, pre-incubated in Water
[49] = GC4559, read-out: MINIMAL INHIBITORY CONCENTRATION MIC, pre-incubated in Mouse Serum
[50] = GC4559, read-out: MINIMAL INHIBITORY CONCENTRATION MIC, pre-incubated in Water
[51] = GC2216, read-out: MINIMAL INHIBITORY CONCENTRATION MIC, pre-incubated in Mouse Serum
[52] = GC2216, read-out: MINIMAL INHIBITORY CONCENTRATION MIC, pre-incubated in Water
[53] = GC2203, read-out: MINIMAL INHIBITORY CONCENTRATION MIC, pre-incubated in Mouse Serum
[54] = GC2203, read-out: MINIMAL INHIBITORY CONCENTRATION MIC, pre-incubated in Water
[55] = GC2267, read-out: MINIMAL INHIBITORY CONCENTRATION MIC, pre-incubated in Mouse Serum
[56] = GC2267, read-out: MINIMAL INHIBITORY CONCENTRATION MIC, pre-incubated in Water
[57] = GC2234, read-out: MINIMAL INHIBITORY CONCENTRATION MIC, pre-incubated in Mouse Serum
[58] = GC2234, read-out: MINIMAL INHIBITORY CONCENTRATION MIC, pre-incubated in Water

In the case of `CCCN(CC(=O)Nc1cc(N(C)C)c2c(c1O)C(=O)C1=C(O)[C@]3(O)C(=O)C(C(N)=O)=C(O)[C@@H](N(C)C)[C@@H]3C[C@@H]1C2)C(=O)OCOC(=O)c1cc(C)cc(C)c1` [Example 26, ({[(2-{[(5aR,6aS,7S,10aS)-9-(aminocarbonyl)-4,7-bis(dimethylamino)-1,8,10a,11-tetrahydroxy-10,12-dioxo-5,5a,6,6a,7,10,10a,12-octahydrotetracen-2-yl]amino}-2-oxoethyl)(propyl)amino]carbonyl}oxy)methyl 3,5-dimethylbenzoate], the MIC [1, 21] is reported as 4 µg/mL (≈ 5.14 µM), the MIC [1, 22] is reported as 4 µg/mL (≈ 5.14 µM) and the MIC [2, 23] is reported as 4 µg/mL (≈ 5.14 µM). It also gave an MIC [2, 24] of over 64 µg/mL, an MIC [3, 25] of 32 µg/mL (≈ 41.1 µM) and an MIC [3, 26] of over 64 µg/mL. The MIC [4, 27] was 0.5 µg/mL (≈ 0.643 µM), the MIC [4, 28] was 0.5 µg/mL (≈ 0.643 µM) and the MIC [5, 29] was 2 µg/mL (≈ 2.57 µM). It also gave an MIC [5, 30] of 64 µg/mL (≈ 82.3 µM), an MIC [6, 31] of 0.25 µg/mL (≈ 0.321 µM) and an MIC [6, 32] of 0.5 µg/mL (≈ 0.643 µM). The MIC [7, 33] was 0.25 µg/mL (≈ 0.321 µM), the MIC [7, 34] was 0.25 µg/mL (≈ 0.321 µM) and the MIC [8, 35] was 0.5 µg/mL (≈ 0.643 µM). The MIC [8, 36] was 8 µg/mL (≈ 10.3 µM), the MIC [9, 37] was 2 µg/mL (≈ 2.57 µM) and the MIC [9, 38] was 4 µg/mL (≈ 5.14 µM). The MIC [10, 39] was 1 µg/mL (≈ 1.29 µM), the MIC [10, 40] was over 64 µg/mL and the ED50 ([11]; Staphylococcus aureus, in Mus musculus, iv, read-out: ED50 SIV (Staph aureus Smith)) was 0.43 mg/kg. The ED50 ([11]; Staphylococcus aureus, in Mus musculus, po, read-out: ED50 SOD (Staph aureus Smith)) was 8.79 mg/kg, the ED50 [11, 41] was 8.79 mg/kg and the ED50 [11, 42] was 0.43 mg/kg. It also gave an MIC [12, 43] of 1 µg/mL (≈ 1.29 µM), an MIC [12, 44] of 2 µg/mL (≈ 2.57 µM) and an MIC [13, 45] of 8 µg/mL (≈ 10.3 µM). For the same molecule, the MIC [13, 46] was over 64 µg/mL, the MIC [14, 47] was 1 µg/mL (≈ 1.29 µM) and the MIC [14, 48] was 4 µg/mL (≈ 5.14 µM). For the same molecule, the MIC [15, 49] was 2 µg/mL (≈ 2.57 µM), the MIC [15, 50] was over 64 µg/mL and the MIC [16, 51] was 0.5 µg/mL (≈ 0.643 µM). It also gave an MIC [16, 52] of 0.5 µg/mL (≈ 0.643 µM), an MIC [17, 53] of 1 µg/mL (≈ 1.29 µM) and an MIC [17, 54] of over 64 µg/mL. It also gave an MIC [18, 55] of 2 µg/mL (≈ 2.57 µM), an MIC [18, 56] of 4 µg/mL (≈ 5.14 µM) and an MIC [19, 57] of 1 µg/mL (≈ 1.29 µM). For the same molecule, the MIC [19, 58] was over 64 µg/mL, the MIC [20, 21] was 0.25 µg/mL (≈ 0.321 µM) and the MIC [20, 22] was 0.25 µg/mL (≈ 0.321 µM).

`CCCCN(CC(=O)Nc1cc(N(C)C)c2c(c1O)C(=O)C1=C(O)[C@]3(O)C(=O)C(C(N)=O)=C(O)[C@@H](N(C)C)[C@@H]3C[C@@H]1C2)C(=O)OCOC(=O)c1ccc(-c2ccccc2)cc1` [Example 21, ({[(2-{[(5aR,6aS,7S,10aS)-9-(aminocarbonyl)-4,7-bis(dimethylamino)-1,8,10a,11-tetrahydroxy-10,12-dioxo-5,5a,6,6a,7,10,10a,12-octahydrotetracen-2-yl]amino}-2-oxoethyl)(butyl)amino]carbonyl}oxy)methyl 1,1′-biphenyl-4-carboxylate] gave an MIC [1, 21] of 4 µg/mL (≈ 4.76 µM), an MIC [1, 22] of 4 µg/mL (≈ 4.76 µM) and an MIC [2, 23] of 1 µg/mL (≈ 1.19 µM). The MIC [2, 24] was over 64 µg/mL, the MIC [3, 25] was over 64 µg/mL and the MIC [3, 26] was over 64 µg/mL. It also gave an MIC [4, 27] of 1 µg/mL (≈ 1.19 µM), an MIC [4, 28] of 64 µg/mL (≈ 76.2 µM) and an MIC [5, 29] of 1 µg/mL (≈ 1.19 µM). For the same molecule, the MIC [5, 30] was over 64 µg/mL, the MIC [6, 31] was 2 µg/mL (≈ 2.38 µM) and the MIC [6, 32] was 32 µg/mL (≈ 38.1 µM). The MIC [7, 33] was 1 µg/mL (≈ 1.19 µM), the MIC [7, 34] was 64 µg/mL (≈ 76.2 µM) and the MIC [8, 35] was 0.25 µg/mL (≈ 0.298 µM). It also gave an MIC [8, 36] of over 64 µg/mL, an MIC [9, 37] of 2 µg/mL (≈ 2.38 µM) and an MIC [9, 38] of 32 µg/mL (≈ 38.1 µM). For the same molecule, the MIC [10, 39] was 1 µg/mL (≈ 1.19 µM), the MIC [10, 40] was over 64 µg/mL and the ED50 [11, 41] was over 32 mg/kg. It also gave an ED50 [11, 42] of 0.77 mg/kg, an MIC [12, 43] of 2 µg/mL (≈ 2.38 µM) and an MIC [12, 44] of 64 µg/mL (≈ 76.2 µM). The MIC [13, 45] was 4 µg/mL (≈ 4.76 µM), the MIC [13, 46] was over 64 µg/mL and the MIC [14, 47] was 4 µg/mL (≈ 4.76 µM). For the same molecule, the MIC [14, 48] was over 64 µg/mL, the MIC [15, 49] was 1 µg/mL (≈ 1.19 µM) and the MIC [15, 50] was over 64 µg/mL. For the same molecule, the MIC [16, 51] was 1 µg/mL (≈ 1.19 µM), the MIC [16, 52] was 64 µg/mL (≈ 76.2 µM) and the MIC [17, 53] was 0.5 µg/mL (≈ 0.595 µM). For the same molecule, the MIC [17, 54] was over 64 µg/mL, the MIC [18, 55] was 2 µg/mL (≈ 2.38 µM) and the MIC [18, 56] was 64 µg/mL (≈ 76.2 µM). The MIC [19, 57] was 0.5 µg/mL (≈ 0.595 µM), the MIC [19, 58] was over 64 µg/mL and the MIC [20, 21] was 0.25 µg/mL (≈ 0.298 µM). It also gave an MIC [20, 22] of 0.5 µg/mL (≈ 0.595 µM).
